# Legend:
# [1] = tested on: mouse fibroblasts L929 cells; assay: Cell viability assay (MTT, ISO 10993-5); assay type: cell-based; settings: 24 h, highest dilution causing 30% or higher destruction of cells
# Description: Culture medium RPMI 1640, without phenol red (Biowest, Nuaille, France) supplemented with 10% FBS, 2 mM […] penicillin, 100 μg/mL streptomycin were used. Briefly, 1 × 10^4/well of L929 cells were placed in 96-well plates and incubated for 24 h at 37 °C and 10% CO2. Afterwards, the old culture medium was replaced with 100 μL of the compound, drug or inhibitor, diluted in culture medium and the cells treated for 24 h. Additionally, cells were treated with 0.03-4.0% concentration of DMSO as the solvent (data not shown). Then, 50 μL of 1 mg/mL of MTT solution in RPMI 1640 without phenol red was added to each well and incubated for 2 h at 37 °C and 10% CO2. Next, cell culture medium was aspirated carefully and 150 μL of DMSO was added to each well, and the plates were gently mixed. Then, 25 μL 0.1 M glycine buffer (pH 10.5) (Sigma-Aldrich) was added. The optical density at 570 nm using a multi-mode microplate reader SpectraMax® i3 (Syngen, Taipei City, Taiwan) was recorded. The results were expressed as a percentage of viability compared to untreated cells. All experiments were performed in triplicate. The reported methyl thiazolyltetrazole (MTT) method was used to study in vitro cytotoxic profile of the s-triazoles 1b-27b to the host cells (L929). Experiments were performed in accordance with the international standard IS0-10993-5:2009. […] The data for acyclic precursors 1a-27a are also included for comparison[39]^,[40].
# T. gondii RH-GFP = assay: Antiparasitic assay: T. gondii RH-GFP proliferation in Hs27 cells; assay type: cell-based, Toxoplasma gondii; settings: for IC50: Toxoplasma gondii, T. gondii RH-GFP in Hs27 cells, 96 h, values above highest tested concentration extrapolated, read-out: IC50Tg; for SI: selectivity index, CC30 (L929)/IC50Tg
# [2] = Cytotoxicity against glioblastoma cells (MTT); assay type: cell-based, human; settings: human, T98G glioblastoma cells, MTT, read-out: Viability of T98G cells (% of control ± SD)
# Description: (§1) Cytotoxic effect of 20b was evaluated using glioblastoma (T98G) cells obtained from the American Type Culture Collection (Manassas, VA). Cells were cultured in Dulbecco’s Modified Eagle’s Medium (DMEM-high glucose) (Sigma Aldrich, St. Louis, MO), supplemented with 10% heat inactivated FBS, penicillin (100 U/mL), and streptomycin (100 μg/mL) (Sigma Aldrich, St. Louis, MO). Cells were maintained in a humidified atmosphere of 5% CO2 and 95% air at 37 °C. Stock solutions of the investigated compounds (20b and temozolomide) were prepared by dissolving solid substances in a sterile DMSO. T98G glioblastoma cells were seeded into 96-well sterile plates at a density of 1 × 10^5cells/mL. After 24 h of incubation, the medium was removed from each well and then cells were incubated for the next 24 h with different concentrations of the investigated compounds (10, 25, 35, 50, and 100 µg/mL) in the medium containing 2% FBS. Viability of T98G cells was evaluated using MTT assay, whose principle is based on the conversion of 3–(4,5-dimethylthiazol-2-yl)-2,5-diphenyltetrazolium bromide (MTT) into dark-blue formazan crystals. In brief, after 24 h incubation of cells with varying concentrations of the tested compounds, culture medium was removed from the plate. Cells were washed with PBS, and then 100 µL of medium containing 10% MTT solution (5 mg/mL) was added to each well. After 3 h incubation, 100 µL (per well) of 10% SDS buffer solution was added to solubilise formazan crystals. After overnight incubation the absorbance was measured at 570 nm using a microplate reader (Epoch, BioTek Instruments, Winooski, VT). Experiments were repeated three times, and the measurements in each experiment were run in quadruplicate. Viability of the investigated cells was expressed as % of the viability of the untreated cells.
# [3] = tested on: human glioblastoma T98G cells; assay: Cytotoxicity against glioblastoma cells (MTT); assay type: cell-based; settings: 24 h
# Description: as §1
# [4] = Haemolytic activity determination; assay type: cell-based; settings: 0.1%, positive control, human RBCs, 37 °C, 30 min; read-out: Haemolysis (%)
# Description: Human red blood cells (RBCs) concentrate was obtained from the Regional Blood Donation and Transfusion Centre (Lublin, Poland). RBCs concentrate (5 mL) was washed three times with sterile PBS and centrifuged at 500 g for 3 min. […] The amount of free haemoglobin in supernatants was measured spectrophotometrically at 405 nm. Negative and positive controls were performed by incubating RBCs with sterile PBS and 0.1% Triton-X, respectively. Each experiment was run in triplicate.
SMILES,CC30 [1] [µg/mL],IC50 (T. gondii RH-GFP) [µg/mL],SI (T. gondii RH-GFP),melting point [°C],further results
"Cc1nc[nH]c1-c1n[nH]c(=S)n1-c1ccccc1Br [7b, 4–(2-bromophenyl)-5–(4-methylimidazol-5-yl)-1,2,4-triazole-3-thione]",2116.90,66.7,31.72,235.6,–
"Cc1nc[nH]c1-c1n[nH]c(=S)n1-c1cccc(Br)c1 [8b, 4–(3-bromophenyl)-5–(4-methylimidazol-5-yl)-1,2,4-triazole-3-thione]",660.09,103,6.41,299.7,–
"Cc1nc[nH]c1-c1n[nH]c(=S)n1-c1ccc(Br)cc1 [9b, 4–(4-bromophenyl)-5–(4-methylimidazol-5-yl)-1,2,4-triazole-3-thione]",225.58,153,1.48,265.9,–
"Cc1nc[nH]c1-c1n[nH]c(=S)n1-c1ccccc1I [10b, 4–(2-iodophenyl)-5–(4-methylimidazol-5-yl)-1,2,4-triazole-3-thione]",1021.41,80.3,12.73,297.6,–
"Cc1nc[nH]c1-c1n[nH]c(=S)n1-c1cccc(I)c1 [11b, 4–(3-iodophenyl)-5–(4-methylimidazol-5-yl)-1,2,4-triazole-3-thione]",625.17,36.4,17.16,276.5,–
"Cc1nc[nH]c1-c1n[nH]c(=S)n1-c1ccc(I)cc1 [12b, 4–(4-iodophenyl)-5–(4-methylimidazol-5-yl)-1,2,4-triazole-3-thione]",483.06,99.1,4.88,290,–
"Cc1ccccc1-n1c(-c2[nH]cnc2C)n[nH]c1=S [14b, 5–(4-methylimidazol-5-yl)-4–(2-methylphenyl)-1,2,4-triazole-3-thione]",2414.35,77.3,31.23,249.9,–
"Cc1cccc(-n2c(-c3[nH]cnc3C)n[nH]c2=S)c1 [15b, 5–(4-methylimidazol-5-yl)-4–(3-methylphenyl)-1,2,4-triazole-3-thione]",579.43,79.1,7.33,248.7,–
"Cc1ccc(-n2c(-c3[nH]cnc3C)n[nH]c2=S)cc1Cl [17b, 4–(3-chloro-4-methylphenyl)-5–(4-methylimidazol-5-yl)-1,2,4-triazole-3-thione]",414.57,175,2.37,264.1,–
"COc1ccc(-n2c(-c3[nH]cnc3C)n[nH]c2=S)cc1OC [21b, 4–(3,4-dimethoxyphenyl)-5–(4-methylimidazol-5-yl)-1,2,4-triazole-3-thione]",318.42,139,2.29,213.4,–
"CCOc1ccc(-n2c(-c3[nH]cnc3C)n[nH]c2=S)cc1 [22b, 4–(4-ethoxyphenyl)-5–(4-methylimidazol-5-yl)-1,2,4-triazole-3-thione]",1881.91,64.2,29.33,239.9,–
"Cc1nc[nH]c1-c1n[nH]c(=S)n1-c1c(C(C)C)cccc1C(C)C [24b, 4–(2,6-diisopropylphenyl)-5–(4-methylimidazol-5-yl)-1,2,4-triazole-3-thione]",144.94,61.7,2.35,251.9,–
"Cc1nc[nH]c1-c1n[nH]c(=S)n1-c1ccc(N(C)C)cc1 [25b, 5–(4-methylimidazol-5-yl)-4–(4-dimethyloaminophenyl)-1,2,4-triazole-3-thione]",755.61,285,2.65,288.2,–
"CCN(CC)c1ccc(-n2c(-c3[nH]cnc3C)n[nH]c2=S)cc1 [26b, 4–(4-diethylaminophenyl)-5–(4-methylimidazol-5-yl)-1,2,4-triazole-3-thione]",230.94,157,1.47,147,–
"Cc1nc[nH]c1-c1n[nH]c(=S)n1Cc1ccccc1 [27b, 4-benzyl-5–(4-methylimidazol-5-yl)-1,2,4-triazole-3-thione]",425.30,148,2.87,229.5,–
"Cn1nnc2c(C(N)=O)ncn2c1=O [Temozolomide, reference compound]",–,–,–,–,"viability at 24 h, 10 µg/mL ([2]; 10 µg/mL): 66.6 ± 1.07%; viability at 24 h, 25 µg/mL ([2]; 25 µg/mL): 61.11 ± 0.45%; viability at 24 h, 35 µg/mL ([2]; 35 µg/mL): 57.3 ± 2.25%; viability at 24 h, 50 µg/mL ([2]; 50 µg/mL): 55.3 ± 1.81%; viability at 24 h, 100 µg/mL ([2]; 100 µg/mL): 53.95 ± 0.33%; reduction of T98G cell viability ([3]; 10 µg/mL): ~33%; reduction of T98G cell viability ([3]; 100 µg/mL): ~46%"
"CC(C)(C)CC(C)(C)c1ccc(OCCO)cc1 [Triton-X, reference compound]",–,–,–,–,"hemolysis at 30 min, 0.1 % [4]: 99.78 ± 0.34%"
